System: Meloidogyne incognita
Assay: Test against Meloidogyne spp., soil pot test (tomato)
Assay type: in vivo
Conditions: 10 ppm active ingredient in soil contaminated with Meloidogyne incognita; tomato (Kurihara) in pots, greenhouse, 4 weeks; from root knot index
Experimental: Test Against Meloidogyne spp. Soil pot Test
Preparation of Test Agent:
1 Part of the active compound is impregnated to 99 parts of pumice to obtain fine granules.
The test agent prepared as mentioned above was added to soil contaminated with Meloidogyne incognita to a chemical concentration of 10 ppm and homogeneously mixed by stirring. A pot (1/5000 are) was filled with the soil. About 20 seeds of tomato (variety: Kurihara) were sown per pot. After cultivation in a greenhouse for 4 weeks, they were carefully pulled out not to damage the roots and the root knot index and the controlling effect were determined as follows.
Degree of damage 0: No knots were formed (Complete control).
1: A few knots were formed.
2: Knots were formed to a medium extent.
3: Knots were formed to an intense extent.
4: Knots were formed to the most intense extent (which corresponds to non-treatment). [formula]
The controlling effect of the compounds tested can then be evaluated according to the following equation: [formula]
The evaluation of the controlling effects of the compounds according to the present invention was done on the basis of the values of the controlling effect which can be obtained in the above-mentioned way and were connected with the following standards:
a: Controlling effect 100-71%
b: Controlling effect 70-50%
c: Controlling effect less than 50%

Structure (SMILES)	Evaluation of controlling effect
FC(F)=C(F)CCSc1ncc(Cl)s1 [Example 1, 5-chloro-2-(3,4,4-trifluoro-3-butenylthio)thiazole]	a (Controlling effect 100-71%)
[O-][S+](CCC(F)=C(F)F)c1ncc(Cl)s1 (stereo not drawn) [Example 2, 5-chloro-2-(3,4,4-trifluoro-3-butenylsulfinyl)thiazole]	a (Controlling effect 100-71%)
O=S(=O)(CCC(F)=C(F)F)c1ncc(Cl)s1 [Example 3, 5-chloro-2-(3,4,4-trifluoro-3-butenylsulfonyl)thiazole]	a (Controlling effect 100-71%)
